pEC50: −log10 of the molar value. Converted amounts (≈) assume the structure as drawn. Values belong to the compound of their own block, whether it stands above or below them.
Assays:
[1] = system: Human immunodeficiency virus 1; experiment: Antiviral activity against HIV1 3B infected in human CEM-SS cells assessed as reduction in cytopathic effect after 4 days; format: functional, organism-based
[2] = Thermodynamic solubility of compound in water at 2 mg after 24 hrs; format: physicochemical; conditions: read-out: Therm_solubility
[3] = Thermodynamic solubility of compound in plON buffer at 2 mg after 24 hrs; format: physicochemical; conditions: read-out: Therm_solubility
[4] = Selectivity index, ratio of CC50 for human CEM-SS cells to EC50 for Antiviral activity against HIV1 3B infected in human CEM-SS cells; format: toxicity, cell-based
[5] = Stability in human liver microsomes assessed as parent compound remaining at 1 uM up to 24 hrs by LC-MS/MS analysis; format: ADME, Microsome; conditions: read-out: Stabilty
[6] = Oral bioavailability in Sprague-Dawley rat at 10 mg/kg up to 24 hrs by LC-MS/MS analysis; format: ADME, organism-based; conditions: in vivo
[7] = Stability in rat liver microsomes assessed as parent compound remaining at 1 uM up to 24 hrs by LC-MS/MS analysis; format: ADME, Microsome; conditions: read-out: Stabilty
[8] = AUCinfinity in Sprague-Dawley rat at 10 mg/kg, po up to 24 hrs by LC-MS/MS analysis; format: ADME, organism-based; parameters: route oral, dose 10 mg/kg, time <=24; conditions: in vivo
[9] = MRTlast in Sprague-Dawley rat at 2 mg/kg, iv up to 24 hrs by LC-MS/MS analysis; format: ADME, organism-based; conditions: in vivo
[10] = AUCinfinity in Sprague-Dawley rat at 2 mg/kg, iv up to 24 hrs by LC-MS/MS analysis; format: ADME, organism-based; parameters: route intravenous, dose 2 mg/kg, time <=24; conditions: in vivo
[11] = Drug concentration in Sprague-Dawley rat at 2 mg/kg, iv after 8 hrs by LC-MS/MS analysis; format: ADME, organism-based; conditions: in vivo, read-out: Drug uptake
[12] = Drug concentration in Sprague-Dawley rat at 2 mg/kg, iv after 24 hrs by LC-MS/MS analysis; format: ADME, organism-based; conditions: in vivo, read-out: Drug uptake
[13] = Cmax in Sprague-Dawley rat at 10 mg/kg, po up to 24 hrs by LC-MS/MS analysis; format: ADME, organism-based; parameters: route oral, dose 10 mg/kg, time <=24; conditions: in vivo
[14] = Half life in Sprague-Dawley rat at 10 mg/kg, po up to 24 hrs by LC-MS/MS analysis; format: ADME, organism-based; conditions: in vivo
[15] = AUClast in Sprague-Dawley rat at 2 mg/kg, iv up to 24 hrs by LC-MS/MS analysis; format: ADME, organism-based; parameters: route intravenous, dose 2 mg/kg, time <=24; conditions: in vivo
[16] = Elimination rate constant Sprague-Dawley rat at 10 mg/kg, po up to 24 hrs by LC-MS/MS analysis; format: ADME, organism-based; conditions: in vivo
[17] = Elimination rate constant Sprague-Dawley rat at 2 mg/kg, iv up to 24 hrs by LC-MS/MS analysis; format: ADME, organism-based; conditions: in vivo
[18] = Drug concentration in Sprague-Dawley rat at 10 mg/kg, po after 24 hrs by LC-MS/MS analysis; format: ADME, organism-based; conditions: in vivo, read-out: Drug uptake
[19] = Cytotoxicity against human CEM-SS cells assessed as reduction in cell viability by XTT assay; format: cell-based
[20] = Cmax in Sprague-Dawley rat at 2 mg/kg, iv up to 24 hrs by LC-MS/MS analysis; format: ADME, organism-based; parameters: route intravenous, dose 2 mg/kg, time <=24; conditions: in vivo
[21] = AUClast in Sprague-Dawley rat at 10 mg/kg, po up to 24 hrs by LC-MS/MS analysis; format: ADME, organism-based; parameters: route oral, dose 10 mg/kg, time <=24; conditions: in vivo
[22] = MRTlast in Sprague-Dawley rat at 10 mg/kg, po up to 24 hrs by LC-MS/MS analysis; format: ADME, organism-based; conditions: in vivo
[23] = Tmax in Sprague-Dawley rat at 10 mg/kg, po up to 24 hrs by LC-MS/MS analysis; format: ADME, organism-based; conditions: in vivo
[24] = Tmax in Sprague-Dawley rat at 2 mg/kg, iv up to 24 hrs by LC-MS/MS analysis; format: ADME, organism-based; conditions: in vivo
[25] = Protein binding in rat plasma at 1 uM after 4 hrs by LC-MS/MS analysis; format: ADME, cell-free; conditions: read-out: PPB (converted)
[26] = Drug concentration in Sprague-Dawley rat at 10 mg/kg, po after 8 hrs by LC-MS/MS analysis; format: ADME, organism-based; conditions: in vivo, read-out: Drug uptake
[27] = Protein binding in human plasma at 1 uM after 4 hrs by LC-MS/MS analysis; format: ADME, cell-free; conditions: read-out: PPB
[28] = system: Human immunodeficiency virus 1; experiment: Antiviral activity against HIV1 3B; format: functional, organism-based; conditions: Human immunodeficiency virus 1, 3B
[29] = system: Human immunodeficiency virus 1; experiment: Antiviral activity against HIV1 3B infected in human CEM-SS cells assessed as reduction in cytopathic effect at 2 nM after 4 days; format: functional; parameters: scale not given: the % may be the effect or the level left; conditions: time 4 day
[30] = Human immunodeficiency virus 1, 3B, CEM-SS, 96 h

Compound: C[C@H]1CO[C@@H]2Cn3cc(C(=O)NCc4cc5c(cc4Br)OCO5)c(=O)c(O)c3C(=O)N12
pEC50 [1, 30]: 8.71 | solubility thermodynamic at 24 h [2]: 21 µg/mL (≈ 42.7 µM) | CC50 [19]: > 10 nM | solubility thermodynamic at 24 h [3]: 21 µg/mL (≈ 42.7 µM) | selectivity ratio ([4]; CEM-SS cells, read-out: Ratio CC50/EC50): > 5.2

Compound: Cc1cc2c(cc1CNC(=O)c1cn3c(c(O)c1=O)C(=O)N1[C@@H](C)CO[C@@H]1C3)OCCO2
pEC50 [1, 30]: < 8.00 | solubility thermodynamic at 24 h [2]: 56 µg/mL (≈ 127 µM) | CC50 [19]: > 10 nM | solubility thermodynamic at 24 h [3]: 70 µg/mL (≈ 159 µM)

Compound: O=C(NCc1c(F)cc(F)cc1F)c1cn2c(c(O)c1=O)C(=O)N1[C@H]3CC[C@H](C3)O[C@@H]1C2 [BICTEGRAVIR]
pEC50 [28]: 9.00

Compound: C[C@H]1CO[C@@H]2Cn3cc(C(=O)NCc4ccc(F)cc4F)c(=O)c(O)c3C(=O)N12 [CABOTEGRAVIR]
Activity [29]: >50%

Further lines, with some results ahead:

pEC50 ([1]; cem-ss): 8.32 | solubility thermodynamic at 24 h [2]: 2680 µg/mL | solubility thermodynamic at 24 h [3]: 1680 µg/mL
Compound: C[C@H]1CO[C@@H]2Cn3cc(C(=O)NCc4ccc(F)nc4F)c(=O)c([O-])c3C(=O)N12.[Na+]
Ratio CC50/EC50 [4]: > 2.08

remaining at 24 h, 1 µM [5]: 105% | F [6]: 17.5% | remaining at 24 h, 1 µM [7]: 110% | AUC [8]: 200.296 µg·h/mL | MRTlast [9]: 9.81 h | AUC [10]: 1139.52 µg·h/mL | concentration at 8 h [11]: 24500 ng/mL | concentration at 24 h [12]: 16600 ng/mL | Cmax [13]: 3680 ng/mL | pEC50 [1, 30]: 9.37 | solubility thermodynamic at 24 h [2]: 2.85 µg/mL (≈ 6.93 µM) | half-life [14]: 2100 min | AUC(0-t) at 24 h [15]: 578 µg·h/mL | k el at 24 h [16]: 5.56e-06 s⁻¹ | Kel [17]: 0.03 h⁻¹ | concentration at 24 h [18]: 4440 ng/mL | Cmax [20]: 37200 ng/mL | AUC(0-t) at 24 h [21]: 66900 ng·h/mL | MRT last at 24 h [22]: 11.3 h | Tmax [23]: 6.67 h | Tmax [24]: 1 h | fraction unbound at 4 h, 1 µM [25]: 0.9 | solubility thermodynamic at 24 h [3]: 3.2 µg/mL (≈ 7.78 µM) | concentration at 8 h [26]: 3470 ng/mL | fraction unbound at 4 h, 1 µM [27]: 0.001
Compound: C[C@H]1CO[C@@H]2Cn3cc(C(=O)NCc4ccc5nonc5c4)c(=O)c(O)c3C(=O)N12
CC50 [19]: > 10 nM

pEC50 [1, 30]: < 8.00 | solubility thermodynamic at 24 h [2]: 78 µg/mL (≈ 201 µM) | solubility thermodynamic at 24 h [3]: 91 µg/mL (≈ 234 µM)
Compound: C[C@H]1CO[C@@H]2Cn3cc(C(=O)NCc4ccncc4F)c(=O)c(O)c3C(=O)N12
CC50 [19]: > 10 nM

pEC50 [28]: 8.96
Compound: C[C@@H]1CCO[C@H]2Cn3cc(C(=O)NCc4ccc(F)cc4F)c(=O)c(O)c3C(=O)N12 [DOLUTEGRAVIR]

— ChEMBL document CHEMBL4680174, “Synthesis, biological evaluation and in silico modeling of novel integrase strand transfer inhibitors (INSTIs)” (Eur J Med Chem, 2020)
